Assay [1] deals with T1, His-tag recombinant human C3 protein (Homo sapiens, UniProt P01024). The experiment in a line: BLI affinity assay (Bio-Layer Interferometry, Ni-NTA biosensor, ForteBio Octet). The following applies: for Kd: 60s association, 90s dissociation, PBS pH 8.0; for kon: association rate constant; for koff: dissociation rate constant, read-out: kdis. It counts as binding. Set-up: purchased Sino Biological Inc. An excerpt: The BLI affinity assay was used to verify the effects of the cyclic peptides of the disclosure and the control product.
BLI refers to Bio-Layer Interferometry. The principle is: after visible light is emitted from the spectrometer, two reflected spectra are formed at the two interfaces of the optical film layer at the end of the sensor, and an interference spectrum is formed. Any change in film thickness caused by molecular binding can be reflected by the displacement value of the interference spectrum.
Subsequently, a 90s dissociation step was performed after the 60s association phase to obtain the Kd value by fitting the curve.
The stock solution was dissolved in 15% acetonitrile, and the working solution was serially diluted with PBS at pH 8.0.
A general note: Biolayer interferometry detects binding as a change in optical thickness at a sensor tip.

Assay [2] concerns classical pathway complement. The experiment in a line: Classical pathway complement inhibition assay (ELISA, human plasma). It counts as biochemical. The following applies: human plasma 1:40 in VBS, 15 minutes at room temperature. How it is done: The half-inhibitory concentration values of SEQ ID NO.1-6 were evaluated by the classical pathway complement inhibition assay. The association constant (Ka), dissociation constant (Kd), and equilibrium dissociation constant (KD) were determined by surface plasmon resonance (SPR) assay.
The complement inhibition assay can be performed with reference to the following steps: Evaluation was performed by an established enzyme-linked immunosorbent assay (ELISA). Under normal ambient temperature, 96-well plates were coated with 50 µL of 1% ovalbumin in PBS for 2 hours. […] After washing, complement activation (C3b/iC3b/C3d bound to immune complexes) was detected using HRP-conjugated goat α-human C3 antibody (1:1000; MP Biomedicals). The reaction was performed using HRP substrate (0.05% ABTS and 0.1% H2O2 dissolved in 0.1 M sodium citrate, pH 4.2), and the absorbance was read at 405 nm using a VICTOR multi-label plate reader (PerkinElmer, Waltham, MA). 100% complement activation was obtained in the absence of the C3 peptide inhibitor, and the absorbance data obtained at 405 nm were converted to the percentage of complement inhibition. […] Surface plasmon resonance (SPR) experiments were performed using a Biacore 3000 instrument (GE Healthcare, Piscataway Town, NJ), and the binding affinity and kinetic characteristics of the cyclic peptides were evaluated by SPR.
On the technique in general: In an ELISA, binding on a coated surface is turned into a signal by an enzyme label.

The next assay concerns the target C3 protein (Homo sapiens, UniProt P01024). The assay is described as follows: MST affinity assay (microscale thermophoresis, Monolith NT.115). In kind it is binding. The following applies: polypeptide about 200 nM, 0.5×PBS, 15% ACN, maximum protein concentration 0.25 µM. Background: In MST a laser heats a spot of the sample, and binding alters the fluorescence response.

In assay [3] the target is C3 protein (MST affinity assay) (Homo sapiens (Human)) (UniProt P01024). The experiment in a line: MST (Monolith NT.115), retest; fluorescently labeled peptide, C3 protein titrated.
C3 protein (MST affinity assay) (Homo sapiens (Human)), sequence (P01024 23-667 limits assumed, form in doubt, chain 1 of 2): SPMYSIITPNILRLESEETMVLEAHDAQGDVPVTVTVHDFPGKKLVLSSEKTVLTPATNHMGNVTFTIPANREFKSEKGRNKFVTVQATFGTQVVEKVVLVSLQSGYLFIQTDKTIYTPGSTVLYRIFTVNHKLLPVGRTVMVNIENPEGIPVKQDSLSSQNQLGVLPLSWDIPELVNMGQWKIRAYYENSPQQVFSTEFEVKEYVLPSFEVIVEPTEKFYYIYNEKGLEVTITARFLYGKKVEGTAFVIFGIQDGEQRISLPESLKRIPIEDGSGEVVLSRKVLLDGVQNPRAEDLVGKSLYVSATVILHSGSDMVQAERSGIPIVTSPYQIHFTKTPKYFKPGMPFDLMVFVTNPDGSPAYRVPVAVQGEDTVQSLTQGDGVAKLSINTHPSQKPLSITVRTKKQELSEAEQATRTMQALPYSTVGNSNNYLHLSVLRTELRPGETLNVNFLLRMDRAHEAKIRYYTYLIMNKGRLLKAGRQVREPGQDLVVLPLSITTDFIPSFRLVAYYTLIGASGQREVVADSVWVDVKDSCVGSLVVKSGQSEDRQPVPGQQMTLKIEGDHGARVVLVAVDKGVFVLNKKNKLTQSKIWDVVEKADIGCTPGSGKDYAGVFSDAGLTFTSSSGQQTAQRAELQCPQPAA
C3 protein (MST affinity assay) (Homo sapiens (Human)), sequence (P01024 672-1663 limits assumed, form in doubt, chain 2 of 2): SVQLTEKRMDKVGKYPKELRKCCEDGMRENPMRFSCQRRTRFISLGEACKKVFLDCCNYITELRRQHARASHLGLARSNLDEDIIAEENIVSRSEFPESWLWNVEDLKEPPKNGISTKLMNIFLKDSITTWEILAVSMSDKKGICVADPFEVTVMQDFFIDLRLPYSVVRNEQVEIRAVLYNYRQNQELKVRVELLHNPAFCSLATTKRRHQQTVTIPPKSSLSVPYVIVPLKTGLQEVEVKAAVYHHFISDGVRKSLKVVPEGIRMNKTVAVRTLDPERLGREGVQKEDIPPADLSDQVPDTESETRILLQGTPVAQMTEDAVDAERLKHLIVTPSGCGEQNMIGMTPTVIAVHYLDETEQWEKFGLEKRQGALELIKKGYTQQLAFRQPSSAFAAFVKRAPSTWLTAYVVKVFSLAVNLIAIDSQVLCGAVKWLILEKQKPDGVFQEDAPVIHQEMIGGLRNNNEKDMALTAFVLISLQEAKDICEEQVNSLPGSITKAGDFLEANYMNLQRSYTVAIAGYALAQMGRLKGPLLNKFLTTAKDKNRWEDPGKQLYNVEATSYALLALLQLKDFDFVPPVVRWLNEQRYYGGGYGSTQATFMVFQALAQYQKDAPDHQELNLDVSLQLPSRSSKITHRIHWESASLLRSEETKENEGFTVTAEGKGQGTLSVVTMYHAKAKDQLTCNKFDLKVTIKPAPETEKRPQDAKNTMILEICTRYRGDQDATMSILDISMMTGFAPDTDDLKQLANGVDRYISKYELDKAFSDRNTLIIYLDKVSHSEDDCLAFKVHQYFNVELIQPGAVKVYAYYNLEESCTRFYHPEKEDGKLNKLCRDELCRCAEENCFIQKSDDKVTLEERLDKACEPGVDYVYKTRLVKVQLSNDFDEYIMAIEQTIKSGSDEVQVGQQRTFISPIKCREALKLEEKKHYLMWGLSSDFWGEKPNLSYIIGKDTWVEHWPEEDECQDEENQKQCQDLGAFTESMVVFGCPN
Assay [4] addresses C3 in human plasma (human) (UniProt P01024). The assay is described as follows: cell-based or functional assay.
Assay [5] deals with C3 protein (MST affinity assay) (Homo sapiens (Human)) (UniProt P01024). The experiment in a line: MST (Monolith NT.115), fluorescently labeled peptide ~200 nM, C3 protein titrated from 0.25 uM.
For assay [6], the target named is T1, His-tag recombinant human C3 protein. The experiment in a line: BLI (ForteBio Octet), His-tag C3 on Ni-NTA biosensor, peptide in solution.
Target sequence in this assay (P01024 23-1663 limits assumed): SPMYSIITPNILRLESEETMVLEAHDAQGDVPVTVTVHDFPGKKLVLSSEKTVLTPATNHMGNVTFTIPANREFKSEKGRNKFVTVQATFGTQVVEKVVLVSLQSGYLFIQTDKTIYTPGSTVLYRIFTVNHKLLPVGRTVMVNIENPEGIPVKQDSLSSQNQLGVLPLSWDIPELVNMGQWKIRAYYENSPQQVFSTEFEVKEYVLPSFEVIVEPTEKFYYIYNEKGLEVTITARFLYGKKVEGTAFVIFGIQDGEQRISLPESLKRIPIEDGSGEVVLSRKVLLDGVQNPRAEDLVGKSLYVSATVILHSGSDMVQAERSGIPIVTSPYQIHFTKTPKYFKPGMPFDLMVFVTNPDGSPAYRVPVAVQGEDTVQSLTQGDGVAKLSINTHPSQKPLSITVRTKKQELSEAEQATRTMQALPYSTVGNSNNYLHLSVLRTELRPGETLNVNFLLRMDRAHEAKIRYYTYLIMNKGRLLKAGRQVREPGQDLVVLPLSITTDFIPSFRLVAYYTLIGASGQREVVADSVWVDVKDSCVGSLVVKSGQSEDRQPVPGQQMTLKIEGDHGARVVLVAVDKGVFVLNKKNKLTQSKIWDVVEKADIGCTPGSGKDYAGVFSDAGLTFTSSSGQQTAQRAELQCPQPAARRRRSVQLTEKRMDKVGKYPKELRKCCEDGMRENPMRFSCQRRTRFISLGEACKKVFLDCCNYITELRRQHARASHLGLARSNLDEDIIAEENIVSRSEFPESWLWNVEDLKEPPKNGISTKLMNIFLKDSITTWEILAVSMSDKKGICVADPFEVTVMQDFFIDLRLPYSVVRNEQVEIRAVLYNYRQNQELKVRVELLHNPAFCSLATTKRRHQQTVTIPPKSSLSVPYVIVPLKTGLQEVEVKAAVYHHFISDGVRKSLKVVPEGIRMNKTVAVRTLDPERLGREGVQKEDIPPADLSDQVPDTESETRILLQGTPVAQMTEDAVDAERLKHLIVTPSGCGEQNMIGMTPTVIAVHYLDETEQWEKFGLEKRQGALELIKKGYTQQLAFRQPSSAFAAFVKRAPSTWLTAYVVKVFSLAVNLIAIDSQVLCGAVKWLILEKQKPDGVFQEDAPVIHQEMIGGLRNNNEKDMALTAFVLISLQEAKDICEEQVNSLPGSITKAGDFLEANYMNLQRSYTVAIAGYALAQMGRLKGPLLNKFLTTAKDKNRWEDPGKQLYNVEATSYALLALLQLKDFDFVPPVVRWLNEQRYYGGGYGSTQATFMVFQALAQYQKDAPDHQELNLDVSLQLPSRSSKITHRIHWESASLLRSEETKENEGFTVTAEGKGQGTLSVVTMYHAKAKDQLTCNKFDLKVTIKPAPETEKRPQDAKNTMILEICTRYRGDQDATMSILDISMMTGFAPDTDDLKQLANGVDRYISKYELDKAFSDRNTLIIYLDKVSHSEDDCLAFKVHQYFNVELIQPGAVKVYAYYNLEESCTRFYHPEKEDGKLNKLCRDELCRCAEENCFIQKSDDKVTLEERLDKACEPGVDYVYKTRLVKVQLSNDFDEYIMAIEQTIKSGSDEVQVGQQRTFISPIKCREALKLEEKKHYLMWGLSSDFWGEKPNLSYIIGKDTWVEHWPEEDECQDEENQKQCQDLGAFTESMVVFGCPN

Positions of bridges follow the written chain, without caps; N, C: chain ends. Non-standard residues stand in square brackets, D forms with d. Residues, ends and D or L forms follow the SMILES beside them. ξ: configuration not given here. Bpa = N[C@@H](Cc1ccc(C(=O)c2ccccc2)cc1)C(=O)O; Trp(7-aza) = N[C@@H](Cc1c[nH]c2ncccc12)C(=O)O; Trp(1-Me) = Cn1cc(C[C@H](N)C(=O)O)c2ccccc21; ξTrp(5-F) = NC(Cc1c[nH]c2ccc(F)cc12)C(=O)O; 2Nal = N[C@@H](Cc1ccc2ccccc2c1)C(=O)O; Api = NC1(C(=O)O)CCNCC1; Abu = CC[C@H](N)C(=O)O; Aib = CC(C)(N)C(=O)O

C3 in human plasma (human), sequence (P01024 23-1663): as the sequence (P01024 23-1663 limits assumed) above

The term Kd denotes the equilibrium constant for the complex coming apart. As a reminder, the kon is the second-order rate constant of association. Take `CC[C@H](C)[C@H](NC(C)=O)C(=O)N[C@H]1CSSC[C@@H](C(=O)N[C@H](C(N)=O)[C@@H](C)O)NC(=O)[C@H](CCCNC(=N)N)NC(=O)[C@H](Cc2c[nH]cn2)NC(=O)C(C)(C)NC(=O)CNC(=O)[C@H](Cc2ccc3ccccc3c2)NC(=O)[C@H](CC(=O)O)NC(=O)[C@H](CCC(N)=O)NC(=O)[C@H](Cc2cn(C)c3ccccc23)NC(=O)[C@H](C(C)C)NC1=O` [SEQ ID NO.1, Ac-ICV-W(CH3)-QD-2Nal -G-Aib-HRCT-NH2(C-C)] (Ac-ICV[Trp(1-Me)]QD[2Nal]G[Aib]HRCT-NH2; disulfide 2-12): in assay [1], the Kd is 3.19 µM, the kon is 15400 M⁻¹ s⁻¹ and the koff stood at 0.0492 s⁻¹.

Usually IC50 stands for the concentration needed to halve the response being measured. Take `CC[C@H](C)[C@H](NC(C)=O)C(=O)N[C@H]1CSSC[C@@H](C(=O)N[C@H](C(N)=O)[C@@H](C)O)NC(=O)[C@H](CCCNC(=N)N)NC(=O)[C@H](Cc2c[nH]cn2)NC(=O)C(C)(C)NC(=O)CNC(=O)C(Cc2c[nH]c3ccc(F)cc23)NC(=O)[C@H](CC(=O)O)NC(=O)[C@H](CCC(N)=O)NC(=O)[C@H](Cc2c[nH]c3ncccc23)NC(=O)[C@H](C(C)C)NC1=O` (some centres unmarked) [SEQ ID NO.2, Ac-ICV-AzaTrp-QD-5F-Trp-G-Aib-HRCT-NH2(C-C)] (Ac-ICV[Trp(7-aza)]QD[ξTrp(5-F)]G[Aib]HRCT-NH2; disulfide 2-12): in assay [1], the kon worked out at 393000 M⁻¹ s⁻¹ and the koff was 0.0179 s⁻¹. In addition, 0.92 µM corresponded to half-maximal inhibition in assay [2] (IC50).

Regarding `CC[C@H](C)[C@H](NC(C)=O)C(=O)N[C@H]1CSSC[C@@H](C(=O)N[C@H](C(N)=O)[C@@H](C)O)NC(=O)[C@H](CCCNC(=N)N)NC(=O)[C@H](Cc2c[nH]cn2)NC(=O)C(C)(C)NC(=O)CNC(=O)C(Cc2c[nH]c3ccc(F)cc23)NC(=O)[C@H](CC(=O)O)NC(=O)[C@H](CCC(N)=O)NC(=O)[C@H](Cc2ccc3ccccc3c2)NC(=O)[C@H](C(C)C)NC1=O` (some centres unmarked) [SEQ ID NO.3, Ac-ICV-2Nal-QD-5F-Trp-G-Aib-HRCT-NH2(C-C)] (Ac-ICV[2Nal]QD[ξTrp(5-F)]G[Aib]HRCT-NH2; disulfide 2-12), in assay [1], the Kd was 0.0454 µM, the kon was 387000 M⁻¹ s⁻¹ and the koff is 0.0176 s⁻¹. Moreover, at C3 protein, the Kd worked out at 0.0354 µM.

On to `CC[C@@H]1NC(=O)[C@@H](NC(=O)[C@@H](NC(C)=O)[C@@H](C)CC)CSSC[C@@H](C(=O)N[C@H](C(N)=O)[C@@H](C)O)NC(=O)[C@H](CCCNC(=N)N)NC(=O)[C@H](Cc2c[nH]cn2)NC(=O)C2(CCNCC2)NC(=O)CNC(=O)C(Cc2c[nH]c3ccc(F)cc23)NC(=O)[C@H](CC(=O)O)NC(=O)[C@H](CCC(N)=O)NC(=O)[C@H](Cc2cn(C)c3ccccc23)NC1=O` (some centres unmarked) [SEQ ID NO.4, Ac-IC-Abu-W(CH3)-QD-5F-Trp -G-Pip-HRCT-NH2(C-C)] (Ac-IC[Abu][Trp(1-Me)]QD[ξTrp(5-F)]G[Api]HRCT-NH2; disulfide 2-12), for which, in assay [1], the kon amounted to 112000 M⁻¹ s⁻¹ and the koff turned out to be 0.0393 s⁻¹. Also, inhibition in assay [2] was half-maximal at 2.26 µM (IC50).

Regarding `CC[C@@H]1NC(=O)[C@@H](NC(=O)[C@@H](NC(C)=O)[C@@H](C)CC)CSSC[C@@H](C(=O)N[C@H](C(N)=O)[C@@H](C)O)NC(=O)[C@H](CCCNC(=N)N)NC(=O)[C@H](Cc2c[nH]cn2)NC(=O)C(C)(C)NC(=O)CNC(=O)C(Cc2c[nH]c3ccc(F)cc23)NC(=O)[C@H](CC(=O)O)NC(=O)[C@H](CCC(N)=O)NC(=O)[C@H](Cc2ccc3ccccc3c2)NC1=O` (some centres unmarked) [SEQ ID NO.5, Ac-IC-Abu- 2Nal -QD-5F-Trp -G-Aib-HRCT-NH2(C-C)] (Ac-IC[Abu][2Nal]QD[ξTrp(5-F)]G[Aib]HRCT-NH2; disulfide 2-12), in assay [1], the Kd came out at 2.26 µM, the kon turned out to be 13100 M⁻¹ s⁻¹ and the koff was found to be 0.0296 s⁻¹.

For the compound `CC[C@H](C)[C@H](NC(C)=O)C(=O)N[C@H]1CSSC[C@@H](C(=O)N[C@H](C(N)=O)[C@@H](C)O)NC(=O)[C@H](CCCNC(=N)N)NC(=O)[C@H](Cc2c[nH]cn2)NC(=O)C(C)(C)NC(=O)CNC(=O)C(Cc2c[nH]c3ccc(F)cc23)NC(=O)[C@H](CC(=O)O)NC(=O)[C@H](CCC(N)=O)NC(=O)[C@H](Cc2ccc(C(=O)c3ccccc3)cc2)NC(=O)[C@H](Cc2ccc(O)cc2)NC1=O` (stereo partly drawn) [SEQ ID NO.6, Ac-IC-Tyr-Bpa-QD-5F-Trp -G-Aib-HRCT-NH2(C-C)] (Ac-ICY[Bpa]QD[ξTrp(5-F)]G[Aib]HRCT-NH2; disulfide 2-12), in assay [1], the Kd came out at 39.9 µM, the kon amounted to 925 M⁻¹ s⁻¹ and the koff is 0.0369 s⁻¹.

As to “SEQ ID NO.2: Ac-ICV-AzaTrp-QD-5F-Trp-G-Aib-HRCT-NH2 (C-C) (peptide)”, the values for the Kd in assay [3], in assay [5] and in assay [6] were 0.0246 µM, 0.114 µM and 0.0454 µM, respectively. The compound also gave an IC50 (µm), classical pathway complement inhibition assay (ELISA, C3b/iC3b/C3d deposition from human plasma) in assay [4] of 0.92 µM.

On to “SEQ ID NO.3: Ac-ICV-2Nal-QD-5F-Trp-G-Aib-HRCT-NH2 (C-C) (peptide)”, for which the IC50 (µm), classical pathway complement inhibition assay (ELISA, C3b/iC3b/C3d deposition from human plasma) in assay [4] is 1.46 µM.

Regarding “SEQ ID NO.4: Ac-IC-Abu-W(CH3)-QD-5F-Trp-G-Pip-HRCT-NH2 (C-C) (peptide)”, the IC50 (µm), classical pathway complement inhibition assay (ELISA, C3b/iC3b/C3d deposition from human plasma) in assay [4] is 2.26 µM. For the same compound, in assay [6], the Kd is 0.351 µM.

(Values after patent publication EP4737473A1, “NOVEL COMPLEMENT INHIBITOR AND PREPARATION, USE AND PRODUCT THEREOF” (Liu, Xiaorong, priority 2023, dated 2025).)
